Experimental data reported in patent publication US10723699B2 (Hyundai Pharm Co., Ltd., priority 2015, dated 2020).
Like-named read-outs stand apart in the source and are kept apart here.

Biological target: T1, G protein-coupled receptor 119 (GPR-119) (Mesocricetus auratus, UniProt A0A1U8CD06)
T1 construct: hamster-derived β-cells containing G protein-coupled receptor 119 (GPR-119), HIT-T15 cells; host or cells: HIT-T15 (hamster pancreatic β-cells)
T1 sequence (A0A1U8CD06 1-334): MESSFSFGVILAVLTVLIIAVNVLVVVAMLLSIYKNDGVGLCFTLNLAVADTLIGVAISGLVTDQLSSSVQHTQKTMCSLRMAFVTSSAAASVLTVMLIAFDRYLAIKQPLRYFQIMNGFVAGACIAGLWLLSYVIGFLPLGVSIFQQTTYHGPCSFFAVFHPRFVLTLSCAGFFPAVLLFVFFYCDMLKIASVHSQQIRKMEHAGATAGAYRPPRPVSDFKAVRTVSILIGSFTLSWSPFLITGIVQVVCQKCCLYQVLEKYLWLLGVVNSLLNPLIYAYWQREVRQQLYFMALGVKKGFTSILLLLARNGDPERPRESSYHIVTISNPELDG
Experiment: cAMP activity in HIT-T15 cells (cAMP dynamic kit, FRET)
Assay type: cell-based, hamster
Summary of the method: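 Hamster HIT-T15 cells (60,000/well) were treated next day with compound at six concentrations, 0.0032–10 μM, for 1 h at 37° C. Cells were then lysed and cAMP measured by competitive HTRF immunoassay (D2-cAMP, cryptate anti-cAMP). Activity was derived as the change in FRET signal relative to DMSO.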

[1] = 1 hour at 37° C., six concentrations 0.0032 to 10 μM, read-out: EC50

Row | Compound | EC50 [1] | EC50 (Table 2, read-out: EC50 value)
1 | O=C(C1CC=C(c2ccc(OCC3CCN(C(=O)C4(C(F)(F)F)CC4)CC3)c(F)c2)CC1)N1CCCC1 (centres unmarked) [Example 421, (4-(3-fluoro-4-((1-(1-(trifluoromethyl)cyclopropanecarbonyl)piperidin-4-yl)methoxy)phenyl)cyclohex-3-enyl)(pyrrolidin-1-yl)methanone] | 53 nM | –
2 | CCc1cnc(N2CCC(COc3ccc(C4=CCC(C(=O)N5CCOCC5)CC4)c(F)c3)CC2)nc1 (centres unmarked) [Example 422, (4-(4-((1-(5-ethylpyrimidin-2-yl)piperidin-4-yl)methoxy)-2-fluorophenyl)cyclohex-3-enyl)(morpholino)methanone] | 18 nM | ≤ 50 nM
3 | CCc1cnc(N2CCC(COc3ccc(C4=CCC(C(=O)N5CCSCC5)CC4)c(F)c3)CC2)nc1 (centres unmarked) [Example 423, (4-(4-((1-(5-ethylpyrimidin-2-yl)piperidin-4-yl)methoxy)-2-fluorophenyl)cyclohex-3-enyl)(thiomorpholino)methanone] | 19 nM | ≤ 50 nM
4 | CCc1cnc(N2CCC(COc3ccc(C4=CCC(C(=O)N5CCC(C#N)CC5)CC4)c(F)c3)CC2)nc1 (centres unmarked) [Example 424, 1-(4-(4-((1-(5-ethylpyrimidin-2-yl)piperidin-4-yl)methoxy)-2-fluorophenyl)cyclohex-3-enecarbonyl)piperidine-4-carbonitrile] | 21 nM | ≤ 50 nM
5 | CCc1cnc(N2CCC(COc3ccc(C4=CCC(C(=O)N5CCC5)CC4)c(F)c3)CC2)nc1 (centres unmarked) [Example 425, azetidin-1-yl(4-(4-((1-(5-ethylpyrimidin-2-yl)piperidin-4-yl)methoxy)-2-fluorophenyl)cyclohex-3-enyl)methanone] | 48 nM | ≤ 50 nM
6 | CCc1cnc(N2CCC(COc3ccc(C4=CCC(C(=O)N5CCCCC5)CC4)c(F)c3)CC2)nc1 (centres unmarked) [Example 426, (4-(4-((1-(5-ethylpyrimidin-2-yl)piperidin-4-yl)methoxy)-2-fluorophenyl)cyclohex-3-enyl)(piperidin-1-yl)methanone] | 6.7 nM | ≤ 50 nM
7 | CCc1cnc(N2CCC(COc3ccc(C4=CCC(C(=O)N5CCC[C@@H]5CO)CC4)c(F)c3)CC2)nc1 (stereo partly drawn) [Example 427, (4-(4-((1-(5-ethylpyrimidin-2-yl)piperidin-4-yl)methoxy)-2-fluorophenyl)cyclohex-3-enyl)((R)-2-(hydroxymethyl)pyrrolidin-1-yl)methanone] | 32 nM | ≤ 50 nM
8 | CCc1cnc(N2CCC(COc3ccc(C4=CCC(C(=O)N5CCN(C)CC5)CC4)cc3F)CC2)nc1 (centres unmarked) [Example 428, (4-(4-((1-(5-ethylpyrimidin-2-yl)piperidin-4-yl)methoxy)-3-fluorophenyl)cyclohex-3-enyl)(4-methylpiperazin-1-yl)methanone] | 70 nM | –
9 | CCc1cnc(N2CCC(COc3ccc(C4=CCC(C(=O)N5CCC(O)CC5)CC4)c(F)c3)CC2)nc1 (centres unmarked) [Example 431, (4-(4-((1-(5-ethylpyrimidin-2-yl)piperidin-4-yl)methoxy)-2-fluorophenyl)cyclohex-3-enyl)(4-hydroxypiperidin-1-yl)methanone] | 27 nM | ≤ 50 nM
10 | CCc1cnc(N2CCC(COc3ccc(C4=CCC(C(=O)N5CCC(CO)CC5)CC4)c(F)c3)CC2)nc1 (centres unmarked) [Example 432, (4-(4-((1-(5-ethylpyrimidin-2-yl)piperidin-4-yl)methoxy)-2-fluorophenyl)cyclohex-3-enyl)(4-(hydroxymethyl)piperidin-1-yl)methanone] | 29 nM | ≤ 50 nM
11 | CCc1cnc(N2CCC(COc3ccc(C4=CCC(C(=O)N5CCNCC5)CC4)cc3F)CC2)nc1 (centres unmarked) [Example 434, (4-(4-((1-(5-ethylpyrimidin-2-yl)piperidin-4-yl)methoxy)-3-fluorophenyl)cyclohex-3-enyl)(piperazin-1-yl)methanone] | 180 nM | –
12 | O=C(C1CC=C(c2ccc(OCC3CCN(c4nc(C(F)(F)F)no4)CC3)c(F)c2)CC1)N1CCCC1 (centres unmarked) [Example 435, (4-(3-fluoro-4-((1-(3-(trifluoromethyl)-1,2,4-oxadiazol-5-yl)piperidin-4-yl)methoxy)phenyl)cyclohex-3-enyl)(pyrrolidin-1-yl)methanone] | 13 nM | ≤ 50 nM
13 | CCC(F)(F)C(=O)N1CCC(COc2ccc(C3=CCC(C(=O)N4CCCC4)CC3)cc2F)CC1 (centres unmarked) [Example 436, 2,2-difluoro-1-(4-((2-fluoro-4-(4-(pyrrolidine-1-carbonyl)cyclohex-1-enyl)phenoxy)methyl)piperidin-1-yl)butan-1-one] | 9.8 nM | ≤ 50 nM
14 | CCc1cnc(N2CCC(COc3ccc(C4=CCC(C(=O)N(CCO)CCO)CC4)c(F)c3)CC2)nc1 (centres unmarked) [Example 437, 4-(4-((1-(5-ethylpyrimidin-2-yl)piperidin-4-yl)methoxy)-2-fluorophenyl)-N,N-bis(2-hydroxyethyl)cyclohex-3-enecarboxamide] | 27 nM | ≤ 50 nM
15 | CCc1cnc(N2CCC(COc3ccc(C4=CCC(C(=O)N(CC)CCO)CC4)c(F)c3)CC2)nc1 (centres unmarked) [Example 438, N-ethyl-4-(4-((1-(5-ethylpyrimidin-2-yl)piperidin-4-yl)methoxy)-2-fluorophenyl)-N-(2-hydroxyethyl)cyclohex-3-enecarboxamide] | 23 nM | ≤ 50 nM
16 | CCC(F)(F)C(=O)N1CCC(COc2ccc(C3=CCC(C(=O)N4CCOCC4)CC3)cc2F)CC1 (centres unmarked) [Example 439, 2,2-difluoro-1-(4-((2-fluoro-4-(4-(morpholine-4-carbonyl)cyclohex-1-enyl)phenoxy)methyl)piperidin-1-yl)butan-1-one] | 5.9 nM | ≤ 50 nM
17 | CC(OC(=O)N1CCC(COc2ccc(C3=CCC(C(=O)N4CCOCC4)CC3)cc2F)CC1)C(F)(F)F (centres unmarked) [Example 440, 1,1,1-trifluoropropan-2-yl 4-((2-fluoro-4-(4-(morpholine-4-carbonyl)cyclohex-1-enyl)phenoxy)methyl)piperidine-1-carboxylate] | 8.7 nM | ≤ 50 nM
18 | CC(C)OC(=O)N1CCC(COc2ccc(C3=CCC(C(=O)N4CCOCC4)CC3)cc2F)CC1 (centres unmarked) [Example 444, isopropyl 4-((2-fluoro-4-(4-(morpholine-4-carbonyl)cyclohex-1-enyl)phenoxy)methyl)piperidine-1-carboxylate] | 26 nM | ≤ 50 nM
19 | O=C(Oc1ccccc1)N1CCC(COc2ccc(C3=CCC(C(=O)N4CCOCC4)CC3)cc2F)CC1 (centres unmarked) [Example 445, phenyl 4-((2-fluoro-4-(4-(morpholine-4-carbonyl)cyclohex-1-enyl)phenoxy)methyl)piperidine-1-carboxylate] | 11 nM | ≤ 50 nM
20 | O=C(OC(C(F)(F)F)C(F)(F)F)N1CCC(COc2ccc(C3=CCC(C(=O)N4CCOCC4)CC3)cc2F)CC1 (centres unmarked) [Example 446, 1,1,1,3,3,3-hexafluoropropan-2-yl 4-((2-fluoro-4-(4-(morpholine-4-carbonyl)cyclohex-1-enyl)phenoxy)methyl)piperidine-1-carboxylate] | 20 nM | ≤ 50 nM
21 | O=C(OC(CF)CF)N1CCC(COc2ccc(C3=CCC(C(=O)N4CCOCC4)CC3)cc2F)CC1 (centres unmarked) [Example 447, 1,3-difluoropropan-2-yl 4-((2-fluoro-4-(4-(morpholine-4-carbonyl)cyclohex-1-enyl)phenoxy)methyl)piperidine-1-carboxylate] | 62 nM | –
